In paper PMC2813745, “A novel inhibitor of the PI3K/Akt pathway based on the structure of inositol 1,3,4,5,6-pentakisphosphate” (British Journal of Cancer, 2010):

Experiments:
ABL1 = ABL1 (Homo sapiens, UniProt P00519); experiment: SelectScreen kinase profiling: ABL1; type: biochemical; details: [ATP] 10 µM
Description: (§1) Effect of the indicated compounds on the activity of various kinases was assessed by SelectScreen Kinase Profiling Service (Invitrogen-Life Technologies, Paisley, UK). Assays were performed using 1 μM of the tested compounds and ATP concentration as indicated in the corresponding tables. In the case of […] a screen using 10 μM of the compound was also carried out, as indicated in the corresponding table.

AKT2 (PKBβ) = AKT2 (PKBβ) (Homo sapiens, UniProt P31751); experiment: SelectScreen kinase profiling: AKT2; type: biochemical; details: for IC50: 10-point titration, [ATP] 200 μM
Chain of AKT2 (PKBβ) (P31751 whole entry): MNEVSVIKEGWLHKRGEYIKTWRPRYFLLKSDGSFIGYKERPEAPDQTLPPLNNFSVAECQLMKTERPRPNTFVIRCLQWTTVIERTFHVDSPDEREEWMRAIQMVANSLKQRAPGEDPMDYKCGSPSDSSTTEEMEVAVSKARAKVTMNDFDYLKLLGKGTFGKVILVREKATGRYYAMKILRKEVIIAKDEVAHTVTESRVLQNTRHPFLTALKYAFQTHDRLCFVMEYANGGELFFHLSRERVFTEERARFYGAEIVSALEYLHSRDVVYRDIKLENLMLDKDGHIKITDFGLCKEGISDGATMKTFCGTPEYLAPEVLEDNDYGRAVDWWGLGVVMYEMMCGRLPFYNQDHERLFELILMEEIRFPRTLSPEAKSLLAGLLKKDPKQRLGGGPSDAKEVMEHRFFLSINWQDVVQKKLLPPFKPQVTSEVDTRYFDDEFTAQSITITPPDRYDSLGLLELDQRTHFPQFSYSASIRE
Description: as §1

AMPK A1/B1/G1 = AMPK A1/B1/G1 (Homo sapiens, UniProt Q13131); experiment: SelectScreen kinase profiling: AMPK A1/B1/G1; type: biochemical; details: 1 µM compound; [ATP] 50 µM
Chain of AMPK A1/B1/G1 (Q13131 whole entry): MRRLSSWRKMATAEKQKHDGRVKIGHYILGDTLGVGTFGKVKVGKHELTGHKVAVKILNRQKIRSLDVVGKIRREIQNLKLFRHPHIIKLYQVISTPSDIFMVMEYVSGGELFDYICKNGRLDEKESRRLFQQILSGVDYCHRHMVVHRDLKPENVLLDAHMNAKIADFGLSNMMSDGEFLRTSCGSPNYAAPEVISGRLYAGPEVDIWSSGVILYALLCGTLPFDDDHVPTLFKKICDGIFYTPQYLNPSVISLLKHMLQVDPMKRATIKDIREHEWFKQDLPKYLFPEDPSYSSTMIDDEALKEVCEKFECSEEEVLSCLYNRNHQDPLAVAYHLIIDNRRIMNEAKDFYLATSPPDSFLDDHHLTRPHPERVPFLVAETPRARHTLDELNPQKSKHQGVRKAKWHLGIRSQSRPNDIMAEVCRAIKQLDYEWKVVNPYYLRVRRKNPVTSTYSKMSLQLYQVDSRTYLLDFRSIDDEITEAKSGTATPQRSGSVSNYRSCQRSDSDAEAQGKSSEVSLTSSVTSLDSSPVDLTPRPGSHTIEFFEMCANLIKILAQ
Chain of AMPK A1/B1/G1 (Q9Y478 whole entry partner): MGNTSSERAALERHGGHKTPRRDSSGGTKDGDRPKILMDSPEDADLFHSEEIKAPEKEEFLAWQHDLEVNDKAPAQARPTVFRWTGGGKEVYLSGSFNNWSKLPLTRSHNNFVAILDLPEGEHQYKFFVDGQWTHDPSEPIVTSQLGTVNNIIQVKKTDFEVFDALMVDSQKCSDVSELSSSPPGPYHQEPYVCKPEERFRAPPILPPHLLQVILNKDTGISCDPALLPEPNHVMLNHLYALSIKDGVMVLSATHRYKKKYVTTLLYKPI
Chain of AMPK A1/B1/G1 (P54619 whole entry partner): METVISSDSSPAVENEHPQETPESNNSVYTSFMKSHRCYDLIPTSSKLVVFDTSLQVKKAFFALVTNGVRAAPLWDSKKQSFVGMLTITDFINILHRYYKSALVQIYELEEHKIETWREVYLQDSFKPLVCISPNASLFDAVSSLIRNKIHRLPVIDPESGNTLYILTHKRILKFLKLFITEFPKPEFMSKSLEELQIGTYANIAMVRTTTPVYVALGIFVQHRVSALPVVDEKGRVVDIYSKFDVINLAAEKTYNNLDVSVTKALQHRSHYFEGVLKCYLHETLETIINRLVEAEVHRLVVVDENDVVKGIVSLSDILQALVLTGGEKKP
Description: as §1

CAMK2A (CaMKII alpha) = CAMK2A (CaMKII alpha) (Homo sapiens, UniProt Q9UQM7); experiment: SelectScreen kinase profiling: CAMK2A; type: biochemical; details: [ATP] 10 µM
Chain of CAMK2A (CaMKII alpha) (Q9UQM7 whole entry): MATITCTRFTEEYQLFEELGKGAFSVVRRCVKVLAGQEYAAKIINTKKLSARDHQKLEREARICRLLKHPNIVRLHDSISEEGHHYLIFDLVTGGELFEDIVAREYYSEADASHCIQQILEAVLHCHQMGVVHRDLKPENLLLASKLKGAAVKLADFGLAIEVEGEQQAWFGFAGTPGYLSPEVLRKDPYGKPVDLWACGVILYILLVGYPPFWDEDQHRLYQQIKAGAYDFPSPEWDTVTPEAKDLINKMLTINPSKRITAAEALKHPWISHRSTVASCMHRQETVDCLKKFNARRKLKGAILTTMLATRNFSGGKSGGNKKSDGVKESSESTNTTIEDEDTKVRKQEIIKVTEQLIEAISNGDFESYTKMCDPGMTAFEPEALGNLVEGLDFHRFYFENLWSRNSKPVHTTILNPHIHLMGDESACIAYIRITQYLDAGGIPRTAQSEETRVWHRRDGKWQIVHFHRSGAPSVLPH
Description: as §1

CDK1/cyclin B = CDK1/cyclin B (Homo sapiens, UniProt P06493); experiment: SelectScreen kinase profiling: CDK1/cyclin B; type: biochemical; details: [ATP] 25 µM
Description: as §1

GSK3B (GSK3β) = GSK3B (GSK3β) (Homo sapiens, UniProt P49841); experiment: SelectScreen kinase profiling: GSK3B; type: biochemical; details: [ATP] 10 µM
Chain of GSK3B (GSK3β) (P49841 whole entry): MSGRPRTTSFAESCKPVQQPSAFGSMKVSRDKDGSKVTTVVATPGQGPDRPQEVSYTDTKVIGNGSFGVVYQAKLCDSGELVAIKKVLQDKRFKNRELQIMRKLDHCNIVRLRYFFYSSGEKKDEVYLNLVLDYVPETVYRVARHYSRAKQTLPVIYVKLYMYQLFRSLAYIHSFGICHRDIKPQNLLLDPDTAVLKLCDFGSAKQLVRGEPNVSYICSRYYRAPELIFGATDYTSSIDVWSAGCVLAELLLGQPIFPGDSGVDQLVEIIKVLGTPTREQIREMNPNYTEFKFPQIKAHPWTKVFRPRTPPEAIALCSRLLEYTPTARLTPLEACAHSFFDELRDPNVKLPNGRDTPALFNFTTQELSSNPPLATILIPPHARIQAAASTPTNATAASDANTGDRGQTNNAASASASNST
Description: as §1

MAPK8 (JNK1) = MAPK8 (JNK1) (Homo sapiens, UniProt P45983); experiment: SelectScreen kinase profiling: MAPK8; type: biochemical; details: [ATP] 100 µM
Chain of MAPK8 (JNK1) (P45983 whole entry): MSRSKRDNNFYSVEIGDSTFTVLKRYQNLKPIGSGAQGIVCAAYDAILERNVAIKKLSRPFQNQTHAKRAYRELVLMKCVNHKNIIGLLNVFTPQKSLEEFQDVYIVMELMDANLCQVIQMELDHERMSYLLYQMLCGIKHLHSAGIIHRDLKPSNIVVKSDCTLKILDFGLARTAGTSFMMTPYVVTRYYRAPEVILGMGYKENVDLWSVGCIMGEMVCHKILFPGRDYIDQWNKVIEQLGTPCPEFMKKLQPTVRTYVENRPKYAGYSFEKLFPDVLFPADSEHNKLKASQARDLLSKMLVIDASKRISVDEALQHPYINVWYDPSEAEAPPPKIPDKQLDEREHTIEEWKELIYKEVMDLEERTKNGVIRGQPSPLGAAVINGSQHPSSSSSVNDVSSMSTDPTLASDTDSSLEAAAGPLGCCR
Description: as §1

MAPK9 (JNK2) = MAPK9 (JNK2) (Homo sapiens, UniProt P45984); experiment: SelectScreen kinase profiling: MAPK9; type: biochemical; details: [ATP] 100 µM
Chain of MAPK9 (JNK2) (P45984 whole entry): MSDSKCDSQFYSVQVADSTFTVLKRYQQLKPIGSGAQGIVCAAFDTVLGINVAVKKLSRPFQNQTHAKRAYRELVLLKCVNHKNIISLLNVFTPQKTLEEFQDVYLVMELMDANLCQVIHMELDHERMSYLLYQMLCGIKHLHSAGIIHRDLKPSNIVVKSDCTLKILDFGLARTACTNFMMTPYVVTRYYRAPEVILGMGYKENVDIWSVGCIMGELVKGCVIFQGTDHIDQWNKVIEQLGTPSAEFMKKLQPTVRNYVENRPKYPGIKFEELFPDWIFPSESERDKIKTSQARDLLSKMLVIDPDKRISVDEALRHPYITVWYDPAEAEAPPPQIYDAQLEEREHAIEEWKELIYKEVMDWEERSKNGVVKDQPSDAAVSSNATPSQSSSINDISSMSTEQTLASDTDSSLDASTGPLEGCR
Description: as §1

PRKCD (PKCδ) = PRKCD (PKCδ) (Homo sapiens, UniProt Q05655); experiment: SelectScreen kinase profiling: PRKCD; type: biochemical; details: [ATP] 25 µM
Description: as §1

CDK9/cyclin T1 = CDK9/cyclin T1 (Homo sapiens, UniProt P50750); experiment: SelectScreen kinase profiling: CDK9/cyclin T1; type: biochemical; details: [ATP] 25 µM
Description: as §1

PC3 = experiment: SRB assay, PC3; type: cell-based, human; details: PC3, 72 h
Description: Cells seeded in a 24-well plate were treated with the indicated compounds in serum free DMEM or DMEM containing 0.5% FBS (PC3). After 72 h, the number of surviving cells was assessed by manual cell counting or by using the cell counter CDA-500 (Sysmex, Milton Keynes, UK). Alternatively, after 48 h, the number of apoptotic cells was assessed by acridine orange/ethidium bromide assay as described ([Piccolo et al, 2004]; [Maffucci et al, 2005]). SRB test was carried out in SKOV-3 and PC3 seeded in 96-well plate (3800 cells per well or 5800 cells per well, respectively) after 72 h of treatment as described ([Cappella et al, 2001]).
The number of surviving cells was assessed by cell counting. Data are mean±s.e. of n=3 (A), n=6 (B), n=3 (C) and n=4 (D) independent experiments carried out in duplicate. ^*=P<0.01; ^**=P<0.05. […] After 72 h the number of surviving cells was assessed by SRB assay. Data are mean±s.e. of n=2 independent experiments.
Data are mean±s.e. of n=4 independent experiments carried out in duplicate. […] Data are mean±s.e. of n=5 independent experiments carried out in duplicate. […] Data are mean±s.e. of n=6 independent experiments carried out in duplicate. […] Data are mean±s.e. of n=2 independent experiments carried out in duplicate. In all cases (A–D), cells were treated for 72 h and the number of surviving cells was assessed by cell counting. […] In all cases (E, F), cells were treated for 72 h and the number of surviving cells was assessed by SRB assay and data are mean±s.e. of two experiments carried out in quadruplicate.

PC3 xenografts = experiment: Anti-tumour activity assay on PC3 xenografts; type: in vivo, nude athymic CD-1 nu/nu mice; details: for tumour growth: 14 consecutive days
Description: Male nude athymic CD-1 nu/nu mice (8-weeks old) were obtained from Harlan (San Pietro al Natisone, Italy) and maintained under specific pathogen-free conditions with food and water provided ad libitum. The general health status of the animals was monitored daily. Procedure involving animals and their care were conducted in conformity with the institutional guidelines that are in compliance with national and international laws and policies.
Exponentially growing PC3 cells were harvested, washed twice and resuspended in PBS at a concentration of 2.5 × 10^7 cells ml^−1. A suspension of 5 × 10^6 PC3 cells was injected subcutaneously (s.c.) into the left flank of the recipient mice. When tumours reached a size of ∼70 mm^3 (approximately 15 days after tumour cell implant), mice were divided into seven groups (n=7). […] Control mice were treated with water in an equal volume. The diameters of s.c. growing tumours were measured with a caliper twice a week and the experiment was ended at day 28 after the implantation.
The volume of s.c. growing tumours was calculated by the formula: Tumour weight (mg)=(length × width^2)/2. Differences in s.c tumour growth between the treatment groups were evaluated with a one-way ANOVA followed by Fisher's test using the StatView statistical package (SAS Institute, Cary, NC, USA). The percentage of tumour growth was calculated as T/C%=(RTV-treated animals/RTV-control animals) × 100, where RTV was the mean relative tumour volume calculated as RTV=Vt/V0. Vt was the tumour volume on the day of measurement and V0 was the tumour volume at the beginning of the treatment. The percentage of tumour weight inhibition (TWI%) was calculated using the formula: TWI%=100–T/C%. The log cell kill (LCK) was calculated using the formula: LCK=T−C/3.32 × Td, where T−C is the tumour growth delay calculated as the difference in median time (in days) required for the tumours in the treatment (T) and control group (C) to reach a predetermined size (i.e., 1000 mg). Td is the tumour volume doubling time in days, determined in the exponential growth phase of the control group from a best-fit straight line. […]
The inositol compounds (12.5–25–50 mg kg^−1 day^−1) and vehicle (water) were given daily by intraperitoneal (i.p.) injections for 14 consecutive days (days 15–28). Tumour size was assessed twice weekly. (A, B) Tumour growth in 2-O-Bn-InsP5-treated mice (A) and InsP5-treated mice (B) compared with control group measured for the duration of the experiment. Results are expressed as mean±s.e. […] The percentage of tumour weight inhibition (TWI%), the tumour growth delay (T−C) and the log cell kill (LCK) were calculated as described in the MATERIALS AND METHODS section. […] Phosphorylation of Akt at its residues Ser473 and Thr308 was assessed by using specific antibodies. […]

Chain of ABL1 (P00519 whole entry): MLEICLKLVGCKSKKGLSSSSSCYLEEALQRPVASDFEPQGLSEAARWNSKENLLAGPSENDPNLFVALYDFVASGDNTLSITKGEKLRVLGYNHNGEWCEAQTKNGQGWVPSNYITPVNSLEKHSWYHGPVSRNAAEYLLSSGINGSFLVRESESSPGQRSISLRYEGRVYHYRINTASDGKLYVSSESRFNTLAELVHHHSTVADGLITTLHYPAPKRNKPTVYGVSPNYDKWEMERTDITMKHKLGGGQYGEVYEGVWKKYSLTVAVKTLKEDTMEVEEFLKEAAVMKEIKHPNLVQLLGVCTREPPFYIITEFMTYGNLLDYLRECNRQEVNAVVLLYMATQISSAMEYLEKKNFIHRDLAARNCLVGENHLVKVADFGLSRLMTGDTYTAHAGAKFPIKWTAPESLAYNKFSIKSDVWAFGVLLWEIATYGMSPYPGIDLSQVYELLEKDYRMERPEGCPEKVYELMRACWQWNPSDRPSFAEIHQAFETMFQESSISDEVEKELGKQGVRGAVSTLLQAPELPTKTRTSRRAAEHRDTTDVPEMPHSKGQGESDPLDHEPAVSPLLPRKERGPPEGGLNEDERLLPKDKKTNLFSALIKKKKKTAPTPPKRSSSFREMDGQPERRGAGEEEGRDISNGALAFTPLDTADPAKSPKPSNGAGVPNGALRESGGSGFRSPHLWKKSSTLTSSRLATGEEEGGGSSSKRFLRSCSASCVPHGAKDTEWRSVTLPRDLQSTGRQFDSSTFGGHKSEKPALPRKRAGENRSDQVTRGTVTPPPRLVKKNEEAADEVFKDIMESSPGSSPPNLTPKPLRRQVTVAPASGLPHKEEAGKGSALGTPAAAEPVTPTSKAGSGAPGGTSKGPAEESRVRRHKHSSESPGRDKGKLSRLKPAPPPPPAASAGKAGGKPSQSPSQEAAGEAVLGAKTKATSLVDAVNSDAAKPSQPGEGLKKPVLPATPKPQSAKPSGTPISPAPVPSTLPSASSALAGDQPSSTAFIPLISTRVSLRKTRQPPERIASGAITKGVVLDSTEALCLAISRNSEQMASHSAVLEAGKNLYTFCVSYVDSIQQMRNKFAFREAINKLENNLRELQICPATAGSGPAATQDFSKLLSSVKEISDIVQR

`O=P(O)(O)OC1C(O)C(OP(=O)(O)O)C(OP(=O)(O)O)C(OP(=O)(O)O)C1OP(=O)(O)O` (stereo not shown) [InsP5, inositol 1,3,4,5,6-pentakisphosphate] gave an inhibition at 10 µM (ABL1; 10 µM compound) of -16%, an IC50 (AKT2 (PKBβ)) of 38.3 µM and an inhibition at 1 µM (AMPK A1/B1/G1) of 4%. It also gave an inhibition at 10 µM (CAMK2A (CaMKII alpha); 10 µM compound) of 17%, an inhibition at 10 µM (CDK1/cyclin B; 10 µM compound) of 16% and an inhibition at 10 µM (GSK3B (GSK3β); 10 µM compound) of 20%. The inhibition at 10 µM (MAPK8 (JNK1); 10 µM compound) was 14%, the inhibition at 10 µM (MAPK9 (JNK2); 10 µM compound) was 23% and the inhibition at 10 µM (PRKCD (PKCδ); 10 µM compound) was 19%. The inhibition at 10 µM (CDK9/cyclin T1; 10 µM compound) was 1%, the “concentrations able to mimic the effect of 2-O-Bn-InsP5” value (PC3) was 200 to 300 µM and the “number of surviving cells” value (PC3) was “no effect in PC3 at concentrations up to 50 μM”. The tumour growth (PC3 xenografts; up to 50 mg kg^−1 daily i.p.) was “no effect”.

With `O=P(O)(O)OC1C(OCc2ccccc2)C(OP(=O)(O)O)C(OP(=O)(O)O)C(OP(=O)(O)O)C1OP(=O)(O)O` (stereo not shown) [2-O-Bn-InsP5, 2-O-benzyl-myo-inositol 1,3,4,5,6-pentakisphosphate] the inhibition at 1 µM (ABL1; 1 µM compound) was 0%, the inhibition at 1 µM (AKT2 (PKBβ); 1 µM compound, [ATP] 200 µM) was 16% and the IC50 (AKT2 (PKBβ)) was 77 µM. For the same compound, the inhibition at 1 µM (AMPK A1/B1/G1) was 16%, the inhibition at 1 µM (CAMK2A (CaMKII alpha); 1 µM compound) was -2% and the inhibition at 1 µM (CDK1/cyclin B; 1 µM compound) was 9%. It also gave an inhibition at 1 µM (GSK3B (GSK3β); 1 µM compound) of 11%, an inhibition at 1 µM (MAPK8 (JNK1); 1 µM compound) of 24% and an inhibition at 1 µM (MAPK9 (JNK2); 1 µM compound) of -1%. For the same compound, the inhibition at 1 µM (PRKCD (PKCδ); 1 µM compound) was 9%, the inhibition at 1 µM (CDK9/cyclin T1; 1 µM compound) was -11% and the “number of surviving cells” value (PC3) was “Higher activity”. For the same compound, the “T-C (tumour growth delay)” value (PC3 xenografts; 50 mg kg^-1, i.p., qdx15) was about 9 days, the tumour growth (PC3 xenografts; 50 mg kg^−1 daily i.p., significant from day 22) was “strong reduction in tumour growth” and the tumour growth (PC3 xenografts; 12.5 and 25 mg kg^−1 daily i.p., vs untreated mice) was “clearly decreased the growth of tumours”.
